Measurements published in patent US5510255A, “Plant fatty acid synthases” (priority 1993, dated 1996).

Legend:
type-I synthase = biological target: T1, type-I synthase (Ricinus communis, UniProt Q41135); test: biochemical; parameters: species or system R. communis
T1 construct: mature plastid protein
T1 sequence (Q41135 43-469): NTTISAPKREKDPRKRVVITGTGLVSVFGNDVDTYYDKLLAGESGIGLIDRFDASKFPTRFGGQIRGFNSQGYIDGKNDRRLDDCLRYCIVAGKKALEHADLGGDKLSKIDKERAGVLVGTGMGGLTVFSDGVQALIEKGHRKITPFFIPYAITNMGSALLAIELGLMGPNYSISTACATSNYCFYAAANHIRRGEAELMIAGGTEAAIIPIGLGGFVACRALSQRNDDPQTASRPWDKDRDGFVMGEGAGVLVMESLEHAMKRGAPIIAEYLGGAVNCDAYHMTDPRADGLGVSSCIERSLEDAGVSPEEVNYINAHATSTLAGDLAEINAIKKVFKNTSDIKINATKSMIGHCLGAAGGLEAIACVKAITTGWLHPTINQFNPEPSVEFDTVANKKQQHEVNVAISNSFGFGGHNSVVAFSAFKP

Synthase I [1] = biological target: T2, Synthase I (Arabidopsis thaliana, UniProt P52410); test: Inhibition with cerulenin; assay type: biochemical
T2 sequence (P52410 47-473): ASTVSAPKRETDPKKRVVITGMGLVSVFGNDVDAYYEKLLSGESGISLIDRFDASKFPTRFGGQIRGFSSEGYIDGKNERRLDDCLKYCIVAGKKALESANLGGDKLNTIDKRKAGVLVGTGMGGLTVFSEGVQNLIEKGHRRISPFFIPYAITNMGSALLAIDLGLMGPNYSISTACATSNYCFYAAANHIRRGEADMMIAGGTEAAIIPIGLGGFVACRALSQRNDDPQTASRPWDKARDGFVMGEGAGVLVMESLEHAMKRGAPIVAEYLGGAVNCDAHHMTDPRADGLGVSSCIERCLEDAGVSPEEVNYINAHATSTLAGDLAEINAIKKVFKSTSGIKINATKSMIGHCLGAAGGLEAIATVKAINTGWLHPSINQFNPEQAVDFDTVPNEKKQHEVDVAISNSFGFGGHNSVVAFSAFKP
Excerpt: (§1) Other plant synthases may also find applicability by this invention, including synthase III type activities. Differences between synthases I, II, and III are also observed in inhibition with cerulenin. […] In FIG. 1, a time course assay of cerulenin effects on synthase I and synthase II activities is provided.

synthase II [2] = biological target: T3, synthase II (Arabidopsis thaliana, UniProt Q9C9P4); test: Inhibition with cerulenin; assay type: biochemical
T3 sequence (Q9C9P4 104-541): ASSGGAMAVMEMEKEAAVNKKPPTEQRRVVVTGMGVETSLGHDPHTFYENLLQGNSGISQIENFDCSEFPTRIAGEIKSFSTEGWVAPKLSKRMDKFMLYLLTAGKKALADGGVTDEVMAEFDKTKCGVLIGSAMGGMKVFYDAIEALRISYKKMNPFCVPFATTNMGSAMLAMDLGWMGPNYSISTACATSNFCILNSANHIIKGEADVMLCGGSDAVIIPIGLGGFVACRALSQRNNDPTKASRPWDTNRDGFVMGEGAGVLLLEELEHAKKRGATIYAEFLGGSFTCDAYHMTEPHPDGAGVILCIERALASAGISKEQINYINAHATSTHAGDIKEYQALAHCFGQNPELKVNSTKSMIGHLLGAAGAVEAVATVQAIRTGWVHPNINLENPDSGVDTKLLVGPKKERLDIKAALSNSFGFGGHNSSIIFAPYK
Excerpt: as §1

synthase III = biological target: T4, synthase III (Arabidopsis thaliana, UniProt P49243); test: Inhibition with cerulenin; assay type: biochemical
T4 sequence (P49243 44-404): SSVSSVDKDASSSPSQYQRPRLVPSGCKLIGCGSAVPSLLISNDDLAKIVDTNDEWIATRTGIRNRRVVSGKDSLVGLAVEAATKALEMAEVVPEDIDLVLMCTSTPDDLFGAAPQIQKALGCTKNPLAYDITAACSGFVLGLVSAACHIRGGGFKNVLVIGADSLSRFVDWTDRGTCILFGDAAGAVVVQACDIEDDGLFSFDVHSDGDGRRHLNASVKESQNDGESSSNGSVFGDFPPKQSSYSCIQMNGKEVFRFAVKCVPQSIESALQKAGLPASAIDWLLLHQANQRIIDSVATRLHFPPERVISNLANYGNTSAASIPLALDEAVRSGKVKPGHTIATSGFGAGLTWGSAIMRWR
Excerpt: as §1

synthase I [3] = test system: T5, synthase I; test: Cerulenin sensitivity of cellulose phosphate flow-through fraction; assay type: biochemical, S. oleracea; details: 0.25 h, 5 μM cerulenin, 15 minutes, room temperature, read-out: reduction of decanoyl-ACP activity
T5 construct: from tissue; host or cells: S. oleracea leaf, cellulose phosphate flow-through
Description: (§2) Each enzyme source is incubated with 5 μM cerulenin for 15 minutes at room temperature before being assayed with each of the acyl-ACP substrates. After incubation with cerulenin, the decanoyl-ACP activity is reduced 99% in the cellulose phosphate flow-through fraction and only 69% in the synthase II fraction. The palmitoyl-ACP activity in the synthase II fraction is not inhibited by the cerulenin treatment.

synthase II [4] = details: cited from earlier work
synthase I [5] = details: cited from earlier work
synthase II [6] = test: Cerulenin sensitivity of synthase II fraction from cellulose phosphate; assay type: biochemical, S. oleracea; details: 5 μM cerulenin, 15 minutes, room temperature
Description: as §2

type-II synthase = biological target: T6, type-II synthase (Ricinus communis, UniProt Q41134); assay type: biochemical, R. communis
T6 construct: mature plastid protein
T6 sequence (Q41134 117-535): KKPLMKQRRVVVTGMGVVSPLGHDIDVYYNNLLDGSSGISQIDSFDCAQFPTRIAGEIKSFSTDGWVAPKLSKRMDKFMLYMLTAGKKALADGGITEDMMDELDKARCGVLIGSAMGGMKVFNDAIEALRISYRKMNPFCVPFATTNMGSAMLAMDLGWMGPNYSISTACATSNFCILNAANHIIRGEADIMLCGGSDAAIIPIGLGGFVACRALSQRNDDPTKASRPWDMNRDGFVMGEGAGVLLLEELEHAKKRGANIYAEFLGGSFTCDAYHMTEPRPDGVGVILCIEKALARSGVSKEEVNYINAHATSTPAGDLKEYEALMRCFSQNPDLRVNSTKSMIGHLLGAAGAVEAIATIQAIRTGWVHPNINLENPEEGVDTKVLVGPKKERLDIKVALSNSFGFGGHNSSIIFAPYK

[7] = cerulenin concentrations above 50 μM

## C/C=C/C/C=C/CCC(=O)[C@H]1O[C@H]1C(N)=O [cerulenin]
type-I synthase
  inactivation of type-I synthase: completely inactivated
type-I synthase; read-out: inhibition of activity with C10:0-ACP
  inhibition at 5 µM: > 80%
Synthase I [1]
  sensitivity of synthase I to cerulenin: most sensitive
Synthase II [2]
  sensitivity of synthase II to cerulenin: less sensitive
Synthase III
  sensitivity of synthase III to cerulenin: least sensitive
Synthase I [3]
  inhibition at 5 µM: 99%
Synthase II [4]; 5 μM cerulenin
  reaction with active site of synthase II: not synthase II
Synthase II [4]; [7]
  reaction with synthase II: react readily
Synthase I [5]; 5 μM cerulenin
  reaction with active site of synthase I: reacts readily
Synthase I [5]; [7]
  reaction with synthase I: react readily
Synthase II [6]
  inhibition of palmitoyl-ACP activity: not inhibited
  reduction of decanoyl-ACP activity: 69%
type-II synthase
  sensitivity of activity with C16:0-ACP (type-II synthase) to cerulenin: virtually insensitive
